{"source": "patent US20220168325A1", "about": "“METHODS TO PROMOTE CEREBRAL BLOOD FLOW IN THE BRAIN” (THE UNIVERSITY OF VERMONT, priority 2019, published 2022)", "molecules": {"B1": {"name": "TIMP3: recombinant soluble TIMP3, matrix metalloproteinase inhibitor (protein, UniProt P35625 24-211, looked up)", "Metalloproteinase inhibitor 3": "CTCSPSHPQDAFCNSDIVIRAKVVGKKLVKEGPFGTLVYTIKQMKMYRGFTKMPHVQYIHTEASESLCGLKLEVNKYQYLLTGRVYDGKMYTGLCNFVERWDQLTLSQRKGLNYRYHLGCNCKIKSCYYLPCFVTSKNECLWTDMLSNFGYPGYQSKHYACIRQKGGYCSWYRGWAPPDKSIINATDP"}}, "key": {"[1]": {"test_system": "capillary-to-arteriole electrical signaling", "experiment": "Ex vivo CaPA preparation from transgenic mice: arteriolar tone and dilation to capillary 10 mM K+", "details": "for Arteriolar dilation in response to capillary stimulation with 10 mM K+: 1 mM 4-AP, 30 ng/mL HB-EGF bath, or exogenous PIP2 bath; for Myogenic tone of arteriolar segment: 1 mM 4-AP or 30 ng/mL HB-EGF"}, "Kir2.1 channel [2]": {"molecular_target": "T1, Kir2.1 channel (Mus musculus, UniProt P35561)", "T1 sequence (P35561 1-428)": "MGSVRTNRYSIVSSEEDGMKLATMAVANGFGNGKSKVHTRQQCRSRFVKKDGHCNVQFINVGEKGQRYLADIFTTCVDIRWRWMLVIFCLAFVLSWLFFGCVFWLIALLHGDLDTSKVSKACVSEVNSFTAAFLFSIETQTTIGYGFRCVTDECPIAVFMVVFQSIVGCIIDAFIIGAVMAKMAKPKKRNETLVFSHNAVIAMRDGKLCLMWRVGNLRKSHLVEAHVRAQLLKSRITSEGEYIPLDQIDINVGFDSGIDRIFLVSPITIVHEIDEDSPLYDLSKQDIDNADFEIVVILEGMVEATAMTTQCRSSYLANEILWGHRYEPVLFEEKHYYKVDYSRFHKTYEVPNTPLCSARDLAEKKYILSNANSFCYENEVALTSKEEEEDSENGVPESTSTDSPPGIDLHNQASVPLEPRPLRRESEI", "experiment": "Patch-clamp recording of Kir2.1 currents in freshly isolated brain capillary endothelial cells (cECs)", "details": "for Effect of simultaneous PKC and IP3R/Ca2+ block on PGE2-mediated suppression of Kir2.1 currents: 1 μM Gö6976 + 30 μM CPA bath-applied + 5.4 mM BAPTA dialyzed together; for Effect of simultaneous PKC and IP3R/Ca2+ block on PGE2-mediated suppression of Kir2.1 currents / Effect on PGE2-induced reduction of Kir2.1 current: PGE2 2 μM, 0 mM Mg-ATP; for Effect on PGE2-induced reduction of Kir2.1 current: diC8-PIP2 10 μM dialyzed, U73122 10 μM bath, Gö6976 1 μM bath, BAPTA 5.4 mM dialyzed; for Decline of Kir2.1 currents over 15 min: in pipette: 1 mM Mg-ATP, 1 mM Mg-ATP-γ-S, or 10 μM diC8-PIP2 with 0 mM Mg-ATP"}, "functional hyperemia": {"test_system": "functional hyperemia", "experiment": "Whisker stimulation-induced functional hyperemia in vivo (laser Doppler flowmetry, somatosensory cortex)", "set-up": "species or system TgNotch3^WT and TgNotch3^R169C mice", "details": "for CBF responses to whisker stimulation: 20 nM HB-EGF perfused over cranial window"}, "[3]": {"test_system": "K+-evoked capillary hyperemia", "experiment": "In vivo two-photon imaging of K+-evoked capillary RBC flux through cranial window", "set-up": "species or system C57BL/6J mouse", "details": "0-mM Ca2+ solution containing 200 μM diltiazem on cranial surface, end of experiment"}, "Kir2.1 channel [4]": {"molecular_target": "T1, Kir2.1 channel", "experiment": "Patch-clamp Ba2+-sensitive Kir2.1 current in cECs from transgenic mice", "type": "cell-based, TgNotch3^WT and TgNotch3^R169C mice", "set-up": "freshly isolated capillary endothelial cells from TgNotch3^WT and TgNotch3^R169C brains; endogenous in cells; host or cells: freshly isolated brain capillary endothelial cells from TgNotch3^WT and TgNotch3^R169C mice (FVB/N background)", "details": "HB-EGF (30 ng/ml, 20 minutes)"}, "[5]": {"details": "cECs dialyzed with 1 mM Mg-ATP, PKC, PKG, PKA inhibitors"}, "[6]": {"details": "dialyzed cECs, 1 mM Mg-ATP, 1 μM Gö6976, 10 μM Rp-8-Br-PET-cGMPS, 1 μM H-89"}, "[7]": {"details": "conventional whole-cell, dialyzed cECs"}}, "note": "Where a name gives a salt, the structure may show the parent alone. Read-outs that look alike come from different tables or passages of the source.", "data": [{"molecule": "Nc1ccncc1", "note": "[4-aminopyridine]", "values": [{"measurement": "Arteriolar dilation in response to capillary stimulation with 10 mM K+", "setting": "[1]; TgNotch3^R169C CaPA", "value": "did not restore arteriolar dilation"}, {"measurement": "Myogenic tone of arteriolar segment", "setting": "[1]; TgNotch3^R169C", "value": "restores myogenic tone"}]}, {"molecule": "CC(C)Oc1ccc2c(=O)c3cc(C(=O)O)ccc3oc2c1", "note": "[AH6809]", "values": [{"measurement": "Effect on inhibitory effect of PGE2 on Kir2.1 currents", "setting": "Kir2.1 channel [2]", "value": "prevented"}]}, {"molecule": "O=C(O)CN(CC(=O)O)c1ccccc1OCCOc1ccccc1N(CC(=O)O)CC(=O)O", "note": "[BAPTA, 1,2-bis(2-aminophenoxy)ethane-N,N,N′,N′-tetraacetic acid]", "values": [{"measurement": "Effect of simultaneous PKC and IP3R/Ca2+ block on PGE2-mediated suppression of Kir2.1 currents", "setting": "Kir2.1 channel [2]", "value": "lack of an effect"}, {"measurement": "Effect on PGE2-induced reduction of Kir2.1 current", "setting": "Kir2.1 channel [2]; dialyzed cECs", "value": "no effect"}]}, {"molecule": "[Ba+2]", "note": "[Ba^2+]", "values": [{"measurement": "Effect on CBF responses to whisker stimulation", "setting": "functional hyperemia; 100 μM Ba2+, TgNotch3^R169C mice", "value": "had no effect"}, {"measurement": "Decrease of functional hyperemia", "setting": "functional hyperemia; 100 μM Ba2+, TgNotch3^WT mice", "value": 60, "unit": "%"}, {"measurement": "HB-EGF-mediated increase in functional hyperemia", "setting": "functional hyperemia; Ba2+ in presence of HB-EGF, CADASIL mice", "value": "inhibited"}, {"measurement": "Inwardly rectifying Kir2.1 currents, block", "setting": "Kir2.1 channel [2]", "value": "abolished"}, {"measurement": "K+-induced upstream vasodilation", "setting": "[1]; Ba2+, TgNotch3^R169C, Timp3^+/- mice", "value": "completely abolished"}]}, {"molecule": "Cn1c2ccccc2c2c3c(c4c5ccccc5n(CCC#N)c4c21)CNC3=O", "note": "[Gö6976, 12-(2-cyanoethyl)-6,7,12,13-tetrahydro-13-methyl-5-oxo-5H-indolo(2,3-a)pyrrolo(3,4-c)-carbazole]", "values": [{"measurement": "Effect of simultaneous PKC and IP3R/Ca2+ block on PGE2-mediated suppression of Kir2.1 currents", "setting": "Kir2.1 channel [2]", "value": "lack of an effect"}, {"measurement": "Effect on peak Kir2.1 current densities at -140 mV", "setting": "Kir2.1 channel [2]; [5]", "value": "absence of an effect"}, {"measurement": "Effect on PGE2-induced reduction of Kir2.1 current", "setting": "Kir2.1 channel [2]; dialyzed cECs", "value": "no effect"}, {"measurement": "Effect on Mg-ATP-mediated maintenance of Kir2.1 currents over 15 min", "setting": "Kir2.1 channel [2]; [6]", "value": "unaltered"}]}, {"molecule": "Cl.Cl.O=S(=O)(NCCNC/C=C/c1ccc(Br)cc1)c1cccc2cnccc12", "note": "[H-89 dihydrochloride]", "values": [{"measurement": "Effect on peak Kir2.1 current densities at -140 mV", "setting": "Kir2.1 channel [2]; [5]", "value": "absence of an effect"}, {"measurement": "Effect on Mg-ATP-mediated maintenance of Kir2.1 currents over 15 min", "setting": "Kir2.1 channel [2]; [6]", "value": "unaltered"}]}, {"molecule": "Nc1ncnc2c1ncn2[C@@H]1O[C@H](COP(=O)(O)OP(=O)(O)OP(O)(O)=S)[C@@H](O)[C@H]1O", "note": "[Mg-ATP-γ-S]", "values": [{"measurement": "Decline of Kir2.1 currents over 15 min", "setting": "Kir2.1 channel [2]; [7]", "value": "failed to avert current decay"}]}, {"molecule": "Nc1nc2c(ncn2[C@@H]2O[C@H](COP(=O)(O)OP(=O)(O)OP(=O)(O)O)[C@@H](O)[C@H]2O)c(=O)[nH]1", "note": "[Na-GTP]", "values": [{"measurement": "Effect on peak Kir2.1 current amplitude or kinetics of current decline", "setting": "Kir2.1 channel [2]; 100 μM Na-GTP in pipette alone or with 1 mM Mg-ATP", "value": "in neither setting did Na-GTP have an effect"}]}, {"molecule": "O=c1c2nc(Br)n([C@@H]3O[C@@H]4CO[P@@](O)(=S)O[C@H]4[C@H]3O)c2nc2[nH]c(-c3ccccc3)cn12", "note": "[Rp-8-Br-PET-cGMPS]", "values": [{"measurement": "Effect on Mg-ATP-mediated maintenance of Kir2.1 currents over 15 min", "setting": "Kir2.1 channel [2]", "value": "unaltered"}, {"measurement": "Effect on peak Kir2.1 current densities at -140 mV", "setting": "Kir2.1 channel [2]", "value": "absence of an effect"}]}, {"molecule": "NC(=O)c1nc(Nc2ccccc2)sc1NC(=O)C1CCCCC1", "note": "[UNC3230, 5-[(Cyclohexylcarbonyl)amino]-2-(phenylamino)-thiazolecarboxamide]", "values": [{"measurement": "Kir2.1 currents 15 min after PIP2 synthesis inhibitor", "setting": "Kir2.1 channel [2]; perforated-patch (intact cytoplasm), PIK93 300 nM, phenylarsine oxide 10 μM, UNC3230 100 nM, bath-applied", "value": "yielded similar results"}]}, {"molecule": "CCCCCCCC(=O)OCC(COP(=O)(O)OC1C(O)C(O)C(OP(=O)(O)O)C(OP(=O)(O)O)C1O)OC(=O)CCCCCCC", "note": "(stereo not drawn) [diC8-PIP2, 1,2-Dioctanoyl phosphatidylinositol 4,5-bisphosphate sodium salt]", "values": [{"measurement": "Initial Kir2.1 currents (at t0)", "setting": "Kir2.1 channel [2]; conventional whole-cell, 0 mM Mg-ATP + 10 μM diC8-PIP2 in pipette", "value": "did not elevate initial Kir2.1 currents"}, {"measurement": "Decline of Kir2.1 currents over 15 min", "setting": "Kir2.1 channel [2]; [7]", "value": "largely abrogated the decline in Kir2.1 currents"}, {"measurement": "Effect on PGE2-induced reduction of Kir2.1 current", "setting": "Kir2.1 channel [2]; dialyzed cECs", "value": "completely abrogated"}]}, {"molecule": "COc1ccc([C@@H]2Sc3ccccc3N(CCN(C)C)C(=O)[C@@H]2OC(C)=O)cc1", "note": "[diltiazem]", "values": [{"measurement": "Arteriolar diameter and capillary RBC flux (maximal response)", "setting": "[3]", "value": "dramatically dilated arterioles and enhanced capillary RBC flux"}]}, {"molecule": "HB-EGF: heparin-binding epidermal growth factor-like growth factor, EGFR ligand", "values": [{"measurement": "CBF responses to whisker stimulation", "setting": "functional hyperemia; CADASIL model (TgNotch3^R169C)", "value": "restored CBF responses to whisker stimulation in CADASIL model to control levels"}, {"measurement": "CBF responses to whisker stimulation", "setting": "functional hyperemia; control mice (TgNotch3^WT)", "value": "no significant effect"}, {"measurement": "Kir2.1 current density", "setting": "Kir2.1 channel [4]; TgNotch3^R169C cECs", "value": "restored it"}, {"measurement": "Kir2.1 current density", "setting": "Kir2.1 channel [4]; TgNotch3^WT cECs", "value": "had no effect"}, {"measurement": "Upstream arteriole response to 10 mM K+ on capillaries", "setting": "[1]; CaPA from endothelial specific Kir2.1^-/- (Kir channel deficient) mice, HB-EGF or soluble PIP2 present", "value": "without effect"}, {"measurement": "Time after restoration of myogenic tone until dilation to capillary K+ appeared", "setting": "[1]; HB-EGF 30 ng/mL, TgNotch3^R169C CaPA", "value": "17 ± 0.5", "unit": "min"}, {"measurement": "Arteriolar dilation in response to capillary stimulation with 10 mM K+", "setting": "[1]; TgNotch3^R169C CaPA", "value": "gradually increased to the amplitude observed in preparations from the control group"}, {"measurement": "Myogenic tone of arteriolar segment", "setting": "[1]; TgNotch3^R169C", "value": "also restored myogenic tone"}, {"measurement": "Arteriolar segment diameter", "setting": "[1]; bath HB-EGF 30 ng/mL, TgNotch3^R169C CaPA", "value": "rapid and sustained constriction"}]}, {"molecule": "SLIGRL-NH2", "values": [{"measurement": "Effect on capillary Kir2.1 currents", "setting": "Kir2.1 channel [2]; perforated patch, 15 min, SLIGRL-NH2 5 μM", "value": "had no effect"}]}, {"molecule": "B1", "values": [{"measurement": "Arteriolar vasodilation induced by capillary stimulation with 10 mM K+", "setting": "[1]; TgNotch3^WT CaPA, bath 8 nM soluble recombinant TIMP3", "value": "gradually attenuated and, ultimately, abolished"}]}]}
